Among the test systems are CAKI-1 renal; DMS 273 small cell lung; KM20L2 colon; OVCAR-5 ovarian; SK-MEL-2 melanoma; SW-620 colon; M19-MEL melanoma; NCI-H522 lung; HOP-18 NSCLC; BT-549 breast.
Common to all, as to test: DTP human tumour cell line panel, 48 h

Each structure is given as a SMILES string. Where “and” joins values, the source holds several entries; their conditions need not be identical. Equal entries are not always repeated.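 Each compound was tested at five concentrations against cells in 96-well plates for 48 hours. The concentration for 50% growth inhibition is given as GI50. At the TGI there is no net growth.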

A word on the TGI: it is the concentration at which net growth stops. A high value points to less potent growth arrest. Regarding `CCCCCCCCCC1C(C)c2c([nH]c3ccccc23)C2C(=O)N(c3ccccc3)C(=O)C21` (stereo unspecified), the TGI with CAKI-1 renal was 28.8 µM; in the assay with DMS 273 small cell lung it was 25 µM; in the assay with KM20L2 colon, 24.9 µM; in the assay with OVCAR-5 ovarian it was 31.5 µM; with SK-MEL-2 melanoma, 32.2 µM; in the assay with SW-620 colon, greater than 100 µM.
Take `Nc1nc(N)c(N=O)c(Nc2ccc(I)cc2)n1`: the TGI is 49.7 µM with DMS 273 small cell lung; 80.6 µM with KM20L2 colon; greater than 100 µM in the assay with M19-MEL melanoma; 29.9 µM in the assay on NCI-H522 lung; 61 µM in the assay on OVCAR-5 ovarian; 34.1 µM in the assay with SK-MEL-2 melanoma. For the same molecule, the TGI in the assay on SW-620 colon was greater than 100 µM.
For the molecule `O=C(CC(=O)Nc1ccccc1O)Nc1ccccc1O`, the total growth inhibition concentration (TGI) with CAKI-1 renal is greater than 100 µM; in the assay on DMS 273 small cell lung, greater than 100 µM; in the assay with HOP-18 NSCLC it was 34.2 µM; in the assay on KM20L2 colon, greater than 100 µM; in the assay on M19-MEL melanoma, 28.4 µM; in the assay on NCI-H522 lung it was 24.8 µM. Also, the TGI was greater than 100 µM in the assay on OVCAR-5 ovarian and 17.1 µM in the assay with SW-620 colon.
As to `CCOC(=O)C(Cc1ccccc1)NC(=O)OC(C)(C)C` (stereo unspecified), the TGI with DMS 273 small cell lung, with M19-MEL melanoma, with OVCAR-5 ovarian, in the assay on SK-MEL-2 melanoma and in the assay with SW-620 colon was greater than 100 µM in each case.
For the molecule `CC1=C(C(=O)CC(=O)C(=O)Nc2ccccc2)Sc2ccccc2N1`, the TGI with HOP-18 NSCLC, with KM20L2 colon, in the assay with M19-MEL melanoma, with NCI-H522 lung, in the assay on OVCAR-5 ovarian and in the assay with SK-MEL-2 melanoma was greater than 100 µM each time. The TGI with SW-620 colon is greater than 100 µM.
The GI50 is the concentration at which growth is held to half of that of the control. With `Nc1ncnc2c(C3OC(CO)C(O)C3O)scc12` (stereo unspecified), the TGI was 0.151 µM and 0.11 µM in the assay on DMS 273 small cell lung; 4.54 µM in the assay on HOP-18 NSCLC; 1.07 µM and 1.64 µM in the assay on KM20L2 colon; 3.4 µM and 2.31 µM in the assay with M19-MEL melanoma; 0.242 µM and 0.0939 µM in the assay on NCI-H522 lung; 0.787 µM and 0.139 µM with OVCAR-5 ovarian. In addition, the TGI is 2.14 µM in the assay on SK-MEL-2 melanoma and greater than 100 µM with SW-620 colon. Moreover, the figures for the GI50 with M19-MEL melanoma and with SK-MEL-2 melanoma were 147 nM and 0.228 µM, respectively.
For `COc1cc2ccnc(-c3c4ccccc4c(N)c4c(OC)c(OC)ccc34)c2cc1OC`, the TGI with CAKI-1 renal was found to be 8.72 µM; in the assay on DMS 273 small cell lung, 3.47 µM; in the assay with M19-MEL melanoma it was 13.7 µM; in the assay with NCI-H522 lung it was 15.9 µM; in the assay on SK-MEL-2 melanoma it was 16.6 µM; in the assay with SW-620 colon, 13.1 µM.
For `NC(=S)NNC(=O)CCC(=O)Nc1ccc(Cl)cc1Cl`, the TGI with CAKI-1 renal, with DMS 273 small cell lung, in the assay on KM20L2 colon, in the assay on M19-MEL melanoma, with NCI-H522 lung and in the assay with OVCAR-5 ovarian was greater than 100 µM each time. The TGI with SK-MEL-2 melanoma and in the assay on SW-620 colon was greater than 100 µM in each case.
As for `COc1ccc2nc(NC(=O)C(=O)C(C(=O)c3ccccc3-c3ccccc3)C3OC(=O)c4ccccc43)sc2c1` (stereo unspecified), the TGI in the assay on KM20L2 colon amounted to 50.1 µM; in the assay on M19-MEL melanoma it was 31 µM; in the assay with NCI-H522 lung, 23.8 µM; in the assay with OVCAR-5 ovarian, 35.9 µM; in the assay on SK-MEL-2 melanoma it was 28 µM; with SW-620 colon it was 50.1 µM.
Turning to `COc1ccc(/C=C/C(=O)c2ccc3cc(OC)c(OC)cc3c2)cc1OC`, the GI50 in the assay on BT-549 breast is 2.55 µM; in the assay with CAKI-1 renal, 4.29 µM; in the assay on NCI-H522 lung, 2480 nM; in the assay with OVCAR-5 ovarian, 4.81 µM; with SK-MEL-2 melanoma it was 11.5 µM; in the assay with SW-620 colon, 3.32 µM. Besides, the TGI was 8.39 µM in the assay on BT-549 breast; 65.4 µM with CAKI-1 renal; 7.99 µM with NCI-H522 lung; greater than 100 µM in the assay with OVCAR-5 ovarian; 31.6 µM in the assay with SK-MEL-2 melanoma; 14.2 µM with SW-620 colon.
Turning to `COc1cc([C@@H]2c3cc4c(cc3[C@@H](NCc3ccccc3)C3COC(=O)[C@@H]32)OCO4)cc(OC)c1O` (stereo partly specified), the TGI was 14.5 µM in the assay on CAKI-1 renal; 36.7 µM with DMS 273 small cell lung; 85.6 µM in the assay on KM20L2 colon; greater than 100 µM with M19-MEL melanoma; greater than 66.6 µM in the assay with OVCAR-5 ovarian; 52.2 µM with SK-MEL-2 melanoma. This molecule also displayed a TGI with SW-620 colon of 57.5 µM.
On to `CCC[CH2][Sn]([CH2]CCC)([O]C(=O)c1cc(OC)c(OC)cc1OC)[O]C(=O)c1cc(OC)c(OC)cc1OC`, for which the GI50 is 0.419 µM with CAKI-1 renal; 1550 nM with DMS 273 small cell lung; 1030 nM in the assay with M19-MEL melanoma; 373 nM in the assay with NCI-H522 lung; 2.27 µM with OVCAR-5 ovarian; 1.26 µM in the assay on SK-MEL-2 melanoma. Besides, in the assay on SW-620 colon, the GI50 was 1.13 µM. For the same molecule, the concentration for total growth inhibition (TGI) amounted to 1.63 µM with CAKI-1 renal; 3.37 µM with DMS 273 small cell lung; 2.36 µM with M19-MEL melanoma; 1.14 µM in the assay with NCI-H522 lung; 4.33 µM in the assay with OVCAR-5 ovarian; 2.54 µM in the assay on SK-MEL-2 melanoma. In addition, the TGI in the assay on SW-620 colon stood at 2.83 µM.
Regarding `O=C(Nc1ccccc1)NS(=O)(=O)c1ccc(N2N=C3c4ccccc4CC3C2c2ccccn2)cc1` (stereo unspecified), the GI50 is 30.6 µM in the assay with BT-549 breast; 26.4 µM in the assay with CAKI-1 renal; 17700 nM in the assay on NCI-H522 lung; 26.8 µM with OVCAR-5 ovarian; 35.6 µM in the assay with SK-MEL-2 melanoma; 34 µM in the assay on SW-620 colon. The TGI in the assay on BT-549 breast is greater than 100 µM; in the assay with CAKI-1 renal it was 90.2 µM; in the assay with NCI-H522 lung, 58.3 µM; in the assay on OVCAR-5 ovarian, 97.9 µM; in the assay with SK-MEL-2 melanoma, greater than 100 µM; with SW-620 colon, greater than 100 µM.
For `CCC[CH2][Ge]([CH2]CCC)([CH2]CCC)[O]C(=O)C(O)c1ccccc1` (stereo unspecified), the GI50 is 5.9 µM in the assay with CAKI-1 renal; 1200 nM with DMS 273 small cell lung; 18.5 µM in the assay with HOP-18 NSCLC; 2180 nM in the assay with KM20L2 colon; 8650 nM in the assay on M19-MEL melanoma; 411 nM in the assay on NCI-H522 lung. In addition, the figures for the GI50 in the assay with OVCAR-5 ovarian and in the assay on SW-620 colon were 6.27 µM and 4.09 µM, respectively. In addition, the TGI in the assay on CAKI-1 renal was 24.1 µM; in the assay with DMS 273 small cell lung, 11.9 µM; in the assay with HOP-18 NSCLC it was 51 µM; in the assay on KM20L2 colon, 22 µM; in the assay with M19-MEL melanoma it was 22.3 µM; in the assay with NCI-H522 lung, 5.65 µM. Besides, the TGI in the assay with OVCAR-5 ovarian came to 21.7 µM; with SW-620 colon, 20.4 µM.
Turning to `Cc1ccc(S(=O)(=O)SCc2ccccc2CSS(=O)(=O)c2ccc(C)cc2)cc1`, the TGI in the assay on CAKI-1 renal was 58.5 µM; in the assay on DMS 273 small cell lung, 44.2 µM; with HOP-18 NSCLC, greater than 100 µM; in the assay with KM20L2 colon, greater than 100 µM; in the assay on M19-MEL melanoma, 60.3 µM; in the assay on NCI-H522 lung, 22.8 µM. Also, the concentration for total growth inhibition (TGI) in the assay on SW-620 colon came out at 31.8 µM.

For the origin of these results see PubChem BioAssay (NCI).
